For the experiment, the system named is THP-1 cells. Description: hTHP-1 assay: gramicidin-stimulated IL-1β detection in PMA-treated THP-1 cells. The class given is cell-based, human. The note with it: Table B2, 10% FBS.

On to `C[C@@H](O)Cn1cc(F)c(S(N)(=O)=NC(=O)Nc2c3c(nc4c2CCC42CC2)CCC3)n1` (single isomer, unassigned) [Example 893, (S) or (R)-4-fluoro-1-((R)-2-hydroxypropyl)-N′-((1′,5′,6′,7′-tetrahydro-2′H-spiro [cyclopropane-1,3′-dicyclopenta[b,e]pyridin]-8′-yl)carbamoyl)-1H-pyrazole-3-sulfonimidamide], for which the IC50 reads like this: (class symbol) 200 to 1000 nM; (numeric value) 679 nM.
Take `NS(=O)(=NC(=O)Nc1c2c(nc(C3CC3)c1C1CC1)CCC2)c1ccn(C2CC2)n1` (single isomer, unassigned) [Example 878, (R) or (S)-1-cyclopropyl-N′-((2,3-dicyclopropyl-6,7-dihydro-5H-cyclopenta[b]pyridin-4-yl)carbamoyl)-1H-pyrazole-3-sulfonimidamide]: the IC50 was 40 to 200 nM (class symbol) and 88 nM (numeric value).
Take `NS(=O)(=NC(=O)Nc1c2c(nc(C(F)(F)F)c1C1CC1)CCC2)c1nn(C2CC2)cc1F` (single isomer, unassigned) [Example 881, (S) or (R)-1-cyclopropyl-N′-((3-cyclopropyl-2-(trifluoromethyl)-6,7-dihydro-5H-cyclopenta [b]pyridin-4-yl)carbamoyl)-4-fluoro-1H-pyrazole-3-sulfonimidamide]: the IC50 runs as follows: (class symbol) 1000 to 5000 nM; (numeric value) 1410 nM.
As to `C[C@@H]1CCc2c1nc1c(c2NC(=O)N=S(N)(=O)c2ccn(C3CC3)n2)CCC1` (single isomer, unassigned) [Example 889, (S) or (R)-1-cyclopropyl-N′-(((R)-3-methyl-1,2,3,5,6,7-hexahydrodicyclopenta [b,e]pyridin-8-yl)carbamoyl)-1H-pyrazole-3-sulfonimidamide], the IC50 (class symbol) was 1000 to 5000 nM and it took 1670 nM to reach half-maximal inhibition (numeric value) (IC50).
For the compound `Cc1c(C(F)(F)F)nc2c(c1NC(=O)N=S(N)(=O)c1ccn(C3CC3)n1)CCC2` (single isomer, unassigned) [Example 890, (R) or (S)-1-cyclopropyl-N′-((3-methyl-2-(trifluoromethyl)-6,7-dihydro-5H-cyclopenta [b]pyridin-4-yl)carbamoyl)-1H-pyrazole-3-sulfonimidamide], the IC50 reads like this: (class symbol) 40 to 200 nM; (numeric value) 108 nM.
For the compound `C[C@@H]1CCc2c1nc1c(c2NC(=O)N=S(N)(=O)c2ccn(C3CC3)n2)CCC1` (single isomer, unassigned) [Example 888, (R) or (S)-1-cyclopropyl-N′-(((R)-3-methyl-1,2,3,5,6,7-hexahydrodicyclopenta [b,e]pyridin-8-yl)carbamoyl)-1H-pyrazole-3-sulfonimidamide], the IC50 is 40 to 200 nM (class symbol) and 49.4 nM (numeric value).
On to `C[C@@H](O)Cn1cc(F)c(S(N)(=O)=NC(=O)Nc2c3c(nc4c2CCC42CC2)CCC3)n1` (single isomer, unassigned) [Example 892, (R) or (S)-4-fluoro-1-((R)-2-hydroxypropyl)-N′-((1′,5′,6′,7′-tetrahydro-2′H-spiro [cyclopropane-1,3′-dicyclopenta[b,e]pyridin]-8′-yl)carbamoyl)-1H-pyrazole-3-sulfonimidamide], for which the IC50 was 8 to 40 nM (class symbol) and 12.7 nM (numeric value).
With `NS(=O)(=NC(=O)Nc1c2c(nc(C3CC3)c1C1CC1)CCC2)c1ccn(C2CC2)n1` (single isomer, unassigned) [Example 879, (S) or (R)-1-cyclopropyl-N′-((2,3-dicyclopropyl-6,7-dihydro-5H-cyclopenta[b]pyridin-4-yl)carbamoyl)-1H-pyrazole-3-sulfonimidamide], the IC50 (class symbol) was in the range of 1000 to 5000 nM and the IC50 (numeric value) was determined as 4430 nM.
With `NS(=O)(=NC(=O)Nc1c2c(nc(C3CC3)c1C1CC1)CCC2)c1nn(C2CC2)cc1F` (single isomer, unassigned) [Example 882, (R) or (S)-1-cyclopropyl-N′-((2,3-dicyclopropyl-6,7-dihydro-5H-cyclopenta[b]pyridin-4-yl)carbamoyl)-4-fluoro-1H-pyrazole-3-sulfonimidamide], the IC50 (class symbol) was in the range of 40 to 200 nM and the midpoint of inhibition (numeric value), the IC50, lay at 102 nM.
With `Cc1c(C(F)(F)F)nc2c(c1NC(=O)N=S(N)(=O)c1ccn(C3CC3)n1)CCC2` (single isomer, unassigned) [Example 891, (S) or (R)-1-cyclopropyl-N′-((3-methyl-2-(trifluoromethyl)-6,7-dihydro-5H-cyclopenta [b]pyridin-4-yl)carbamoyl)-1H-pyrazole-3-sulfonimidamide], the IC50 is 5000 to 30000 nM (class symbol) and 6510 nM (numeric value).
`NS(=O)(=NC(=O)Nc1c2c(nc3c1CCC31CC1)CCC2)c1ccn(C2CC2)n1` (single isomer, unassigned) [Example 884, (R) or (S)-1-cyclopropyl-N′-((1′,5′,6′,7′-tetrahydro-2′H-spiro[cyclopropane-1,3′-dicyclopenta[b,e]pyridin]-8′-yl)carbamoyl)-1H-pyrazole-3-sulfonimidamide]: the IC50 by setting is: (class symbol) 40 to 200 nM; (numeric value) 53.3 nM.
For `NS(=O)(=NC(=O)Nc1c2c(nc(C3CC3)c1C1CC1)CCC2)c1nn(C2CC2)cc1F` (single isomer, unassigned) [Example 883, (S) or (R)-1-cyclopropyl-N′-((2,3-dicyclopropyl-6,7-dihydro-5H-cyclopenta[b]pyridin-4-yl)carbamoyl)-4-fluoro-1H-pyrazole-3-sulfonimidamide], in that order: 1000 to 5000 nM and 1250 nM.
Compound `NS(=O)(=NC(=O)Nc1c2c(nc3c1CCC3)CCC2)c1ccn(C2CC2)n1` (single isomer, unassigned) [Example 886, (R) or (S)-1-cyclopropyl-N′-((1,2,3,5,6,7-hexahydrodicyclopenta [b,e]pyridin-8-yl)carbamoyl)-1H-pyrazole-3-sulfonimidamide] registered an IC50 (class symbol) of 200 to 1000 nM and an IC50 (numeric value) of 270 nM.
On to `NS(=O)(=NC(=O)Nc1c2c(nc(C(F)(F)F)c1C1CC1)CCC2)c1nn(C2CC2)cc1F` (single isomer, unassigned) [Example 880, (R) or (S)-1-cyclopropyl-N′-((3-cyclopropyl-2-(trifluoromethyl)-6,7-dihydro-5H-cyclopenta [b]pyridin-4-yl)carbamoyl)-4-fluoro-1H-pyrazole-3-sulfonimidamide], for which the IC50 was 40 to 200 nM (class symbol) and 53.9 nM (numeric value).
In the case of `C[C@H](O)Cn1cc(F)c(S(N)(=O)=NC(=O)Nc2c3c(nc4c2CCC42CC2)CCC3)n1` (single isomer, unassigned) [Example 896, (R) or (S)-4-fluoro-1-((S)-2-hydroxypropyl)-N′-((1′,5′,6′,7′-tetrahydro-2′H-spiro [cyclopropane-1,3′-dicyclopenta[b,e]pyridin]-8′-yl)carbamoyl)-1H-pyrazole-3-sulfonimidamide], the 50% inhibitory concentration (IC50) is, setting by setting: (class symbol) 8 to 40 nM; (numeric value) 13.6 nM.
For the compound `NS(=O)(=NC(=O)Nc1c2c(nc3c1CCC3)CCC2)c1ccn(C2CC2)n1` (single isomer, unassigned) [Example 887, (S) or (R)-1-cyclopropyl-N′-((1,2,3,5,6,7-hexahydrodicyclopenta [b,e]pyridin-8-yl)carbamoyl)-1H-pyrazole-3-sulfonimidamide], the IC50 is, setting by setting: (class symbol) 5000 to 30000 nM; (numeric value) 5880 nM.
Regarding `NS(=O)(=NC(=O)Nc1c2c(nc3c1CCC31CC1)CCC2)c1ccn(C2CC2)n1` (single isomer, unassigned) [Example 885, (S) or (R)-1-cyclopropyl-N′-((1′,5′,6′,7′-tetrahydro-2′H-spiro[cyclopropane-1,3′-dicyclopenta[b,e]pyridin]-8′-yl)carbamoyl)-1H-pyrazole-3-sulfonimidamide], the IC50 runs as follows: (class symbol) 1000 to 5000 nM; (numeric value) 2260 nM.
For `C[C@H](O)Cn1cc(F)c(S(N)(=O)=NC(=O)Nc2c3c(nc4c2CCC42CC2)CCC3)n1` (single isomer, unassigned) [Example 897, (S) or (R)-4-fluoro-1-((S)-2-hydroxypropyl)-N′-((1′,5′,6′,7′-tetrahydro-2′H-spiro [cyclopropane-1,3′-dicyclopenta[b,e]pyridin]-8′-yl)carbamoyl)-1H-pyrazole-3-sulfonimidamide], in that order: 200 to 1000 nM and 310 nM.

By IC50 is commonly meant the concentration at which inhibition is half-maximal. A lower IC50 goes with greater potency.

The record behind these values is patent publication US20230063462A1, “SULFONIMIDAMIDE COMPOUNDS AND COMPOSITIONS FOR TREATING CONDITIONS ASSOCIATED WITH NLRP ACTIVITY” (NOVARTIS AG, priority 2019, published 2023).
